Columns and labels:
P-gp expression = assay: Flow cytometric analysis of P-gp expression; assay type: cell-based, human; conditions: 72 h; 5 µM 5, 200 nM 7, 100 nM 9, 10 nM TQ, 50 nM DOX, 50 nM PTX
Protocol: P-glycoprotein expression level in NCI-H460, NCI-H460/R, DLD1, and DLD1-TxR and cells was measured by flow cytometry. All cell lines were seeded in adherent 6-well plates and treated with Hsp90 inhibitors for 72 h at the following concentrations: 5 µM compound 5, 200 nM compound 7, 100 nM compound 9 (NCI-H460 and DLD1), and 10 µM compound 5, 500 nM compound 7, 500 nM compound 9 (NCI-H460/R and DLD1-TxR). Cells were also treated with 10 nM TQ, a non-competitive P-gp inhibitor, which served as a positive control. In addition, sensitive cells (NCI-H460 and DLD1) were treated with 50 nM DOX and 50 nM PTX that served as positive controls for the induction of P-gp expression. Then, cells were collected by trypsinization, washed with PBS, and directly immunostained by FITC-conjugated anti-P-gp antibody according to the manufacturer’s protocol. The samples were kept in the dark until the analysis on CyFlow Space Partec flow cytometer (Sysmex Partec GmbH, Görlitz, Germany). The fluorescence of FITC-conjugated anti-P-gp was detected on fluorescence channel 1 (FL1-H) at 530 nm. A minimum of 10,000 events were collected for each sample (the gate excluded cell debris and dead cells) and the obtained results were analyzed with Summit software v4.3 (Dako Colorado Inc., Fort Collins, CO, USA).

NCI-H460/R cells [1] = assay: Combined treatment of compound 5 with DOX, MTT, median effect analysis; assay type: cell-based, human; conditions: Homo sapiens, NCI-H460, 72 h, DOX alone, 72 h
Protocol: The combined effects of compound 5 with DOX as well as with PTX were studied in NCI-H460/R and DLD1-TxR cells, respectively, by MTT assay. In simultaneous treatments that lasted 72 h in NCI-H460/R cells, three concentrations of compound 5 (2.5, 5, and 10 µM) were combined with increasing concentrations of DOX (250, 500 and 1000 nM), while in DLD1-TxR cells different concentrations of compound 5 (1, 2.5, and 5 µM) were combined with increasing concentrations of PTX (100, 250 and 500 nM). The nature of the interaction between Hsp90 inhibitors and DOX/PTX was analyzed with CalcuSyn software v1.1 (Biosoft, Cambridge, UK) that uses the Combination Index method based on the multiple drug effect equation [54]. Three data points were used for each single drug in each experiment. The non-constant ratio combination was chosen to assess the effect of both drugs in combination. The results are presented in a fraction-affected CI graph. Values of CI < 1 point to a pronounced additive effect or synergism (the smaller value, the greater the degree of synergy). A value of CI = 1 indicates an additive effect, while values of CI > 1 point to an antagonistic effect.

DLD1-TxR cells = assay: MTT assay, cell growth inhibition, DLD1-TxR (MDR); assay type: cell-based, human; conditions: 72 h
Protocol: (§1) A series of 3-aryl-naphtho[2,3-d]isoxazole-4,9-diones were synthesized (Scheme 1, Figure 1) and their growth inhibition activity was tested in vitro on human non-small cell lung carcinoma NCI-H460, colorectal carcinoma DLD1 and their corresponding MDR cells (NCI-H460/R and DLD1-TxR, respectively), as well as normal embryonic lung fibroblasts MRC-5. The differences in cell growth inhibition between cancer and normal cells obtained by the MTT assay after 72 h treatment are presented in Table 1. The effect of compounds is presented as IC50 values that correspond to the 50% of cell growth inhibition.
(§2) Human colorectal carcinoma (DLD1), non-small cell lung carcinoma (NCI-H460), and normal embryonic lung fibroblast (MRC-5) cell lines were purchased from the American Type Culture Collection, Rockville, MD. P-gp overexpressing multidrug resistant DLD1-TxR cells were selected by continuous exposure to stepwise increasing concentrations of paclitaxel from DLD1 cells, while NCI-H460/R cells were selected from NCI-H460 cells after DOX selective pressure. MDR cancer cell lines, DLD1-TxR and NCI-H460/R, and their sensitive counterparts were maintained in RPMI 1640 medium supplemented with 10% FBS, 2 mM L-glutamine, and 10,000 U/mL penicillin, 10 mg/mL streptomycin, 25 mg/mL amphotericin B solutions. MRC-5 cells were cultured in DMEM supplemented with 10% FBS, 4 g/L glucose, 2 mM L-glutamine and 5000 U/mL penicillin, 5 mg/mL streptomycin solution. All cell lines were sub-cultured at 72 h intervals using 0.25% trypsin/EDTA and seeded into a fresh medium at 8000 cells/cm^2. All cell lines were maintained at 37 °C in a humidified 5% CO2 atmosphere.
(§3) Cell viability was assessed by the MTT assay (AppliChem GmbH, Darmstadt, Germany). Cells grown in 25 cm^2 tissue flasks were trypsinized and 1000 cells/well were seeded into flat-bottomed 96-well tissue culture plates and incubated overnight. Subsequently, the cells were treated with increasing concentrations of Hsp90 inhibitors for 72 h: compound 3 (0.1–2.5 µM), compound 4 (0.25–5 µM), compound 5 (0.5–25 µM), compound 6 (50–1000 nM), compound 7 (10–250 nM), compound 8 (0.25–5 µM), compound 9 (10–250 nM), compound 10 (0.5–25 µM), compound 13 (0.5–10 µM), compound 14 (1–25 µM), and compound 15 (10–250 nM). […] After treatment, MTT was added to each well in a final concentration of 0.2 mg/mL for 4 h. Formazan product was dissolved in 200 µl of DMSO, and the absorbance was measured at 540 nm using an automatic LKB 5060-006 Micro Plate Reader (Vienna, Austria). IC50 value was defined as a concentration of the drug that inhibited cell growth by 50% and was calculated by nonlinear regression analysis using GraphPad Prism 6.0 for Windows (La Jolla, CA, USA). Relative selectivity towards cancer cells was calculated as a relation between IC50 value obtained in MRC-5 cells and an average IC50 value from four tested cancer cell lines.

DLD1 cells = assay: MTT assay, cell growth inhibition, DLD1; assay type: cell-based; conditions: Homo sapiens, DLD-1, 72 h
Protocol: as §1, §3

[2] = system: NCI-H460, NCI-H460/R, DLD1, DLD1-TxR cells; assay: MTT assay, grouping of inhibitors by IC50 over the cancer cell lines; assay type: cell-based; conditions: Homo sapiens, Figure 2b, read-out: IC50 values (grouping for Pearson correlation)
Protocol: When the IC50 values obtained by the MTT assay were compared to Hsp90 affinity binding IC50 values (Table 1), a positive Pearson correlation (r > 0.5) was found for all cancer cell lines (Figure 2b).
as §3

P-gp = P-gp (Homo sapiens, UniProt P08183); assay: Rhodamine 123 accumulation assay (P-gp activity, flow cytometry); assay type: cell-based; design: P-gp overexpressing multidrug resistant DLD1-TxR cells were selected by continuous exposure to stepwise increasing concentrations of paclitaxel from DLD1 cells; endogenous in cells; host or cells: NCI-H460/R and DLD1-TxR (drug-selected MDR human cancer cells); conditions: MDR NCI-H460/R and DLD1-TxR cells, 30 min, one concentration per compound (100 nM-10 µM), Figure 3a
Sequence of P-gp (P08183 whole entry): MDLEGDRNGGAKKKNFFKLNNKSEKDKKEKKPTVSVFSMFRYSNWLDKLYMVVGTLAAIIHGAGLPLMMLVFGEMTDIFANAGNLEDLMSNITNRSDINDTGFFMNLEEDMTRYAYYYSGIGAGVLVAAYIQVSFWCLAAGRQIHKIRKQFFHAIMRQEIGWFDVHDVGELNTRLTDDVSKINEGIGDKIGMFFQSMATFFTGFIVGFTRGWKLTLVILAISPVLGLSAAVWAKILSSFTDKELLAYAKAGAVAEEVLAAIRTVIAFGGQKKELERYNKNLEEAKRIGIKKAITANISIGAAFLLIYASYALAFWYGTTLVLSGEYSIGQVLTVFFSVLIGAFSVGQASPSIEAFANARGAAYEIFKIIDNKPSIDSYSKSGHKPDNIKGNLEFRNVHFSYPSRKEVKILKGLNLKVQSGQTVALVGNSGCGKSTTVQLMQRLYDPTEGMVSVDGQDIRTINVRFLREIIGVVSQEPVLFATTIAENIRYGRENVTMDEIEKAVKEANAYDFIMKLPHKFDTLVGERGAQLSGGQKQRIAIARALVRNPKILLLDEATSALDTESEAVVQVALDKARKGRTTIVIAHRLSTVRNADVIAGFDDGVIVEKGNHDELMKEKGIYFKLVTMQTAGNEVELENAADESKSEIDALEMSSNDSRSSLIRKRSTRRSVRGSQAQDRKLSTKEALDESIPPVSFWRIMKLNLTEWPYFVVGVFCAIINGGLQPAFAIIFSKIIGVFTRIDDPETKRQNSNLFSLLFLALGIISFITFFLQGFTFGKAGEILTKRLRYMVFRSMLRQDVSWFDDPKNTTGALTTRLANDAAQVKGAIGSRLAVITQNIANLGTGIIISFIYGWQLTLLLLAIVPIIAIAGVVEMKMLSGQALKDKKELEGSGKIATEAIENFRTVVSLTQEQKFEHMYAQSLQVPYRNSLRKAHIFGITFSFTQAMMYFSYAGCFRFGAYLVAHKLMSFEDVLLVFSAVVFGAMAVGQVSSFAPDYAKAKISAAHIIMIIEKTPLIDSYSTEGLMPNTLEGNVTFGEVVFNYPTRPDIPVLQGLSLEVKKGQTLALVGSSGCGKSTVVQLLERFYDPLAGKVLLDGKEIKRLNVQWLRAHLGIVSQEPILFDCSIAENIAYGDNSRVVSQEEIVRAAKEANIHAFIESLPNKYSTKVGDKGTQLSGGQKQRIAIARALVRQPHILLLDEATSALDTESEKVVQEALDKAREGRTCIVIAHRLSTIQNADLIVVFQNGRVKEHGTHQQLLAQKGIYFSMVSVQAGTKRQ
Protocol: To study the effect of Hsp90 inhibitors on P-gp activity in MDR cancer cells, intracellular accumulation of the P-gp substrate rhodamine 123 (Rho 123) was analyzed by flow cytometry after 30 min treatment (Figure 3a). A well-known inhibitor of P-gp activity, tariquidar (TQ), was included as a positive control.
The accumulation of Rho 123, a fluorescent P-gp substrate, was measured by flow cytometry. The intensity of the fluorescence is proportional to Rho 123 accumulation in the cell. All cell lines were seeded in adherent 6-well plates and grown overnight. DLD1-TxR and NCI-H460/R cells were treated for 30 min with the following concentrations of Hsp90 inhibitors: 500 nM compound 3, 1 µM compound 4, 10 µM compound 5, 500 nM compound 6, 500 nM compound 7, 1 µM compound 8, 500 nM compound 9, 1 µM compound 10, 1 µM compound 13, 10 µM compound 14, 100 nM compound 15. TQ (10 nM) was used as a positive control for Rho 123 accumulation. Rho 123 (5 μM) was simultaneously added with the investigated compounds and the cells were incubated at 37 °C in 5% CO2 for 30 min. The cells were then trypsinized, pelleted by centrifugation, washed with PBS and placed in ice-cold PBS. The samples were kept on ice in the dark until the analysis on CyFlow Space Partec flow cytometer (Sysmex Partec GmbH, Görlitz, Germany). The fluorescence of Rho 123 was detected on fluorescence channel 1 (FL1-H) at 530 nm. A minimum of 10,000 events were collected for each sample and the obtained results were analyzed using Summit software.

MRC-5 cells = assay: MTT assay, normal embryonic lung fibroblasts MRC-5; assay type: cell-based, human; conditions: Homo sapiens, MRC5; MTT, 72 h, normal fibroblasts; read-out: Cell growth inhibition IC50, MRC-5
Protocol: as §1, §3

Hsp90 = system: Hsp90; design: method as in PMID 22538015; conditions: read-out: Hsp90 Affinity binding; cited from earlier work
NCI-H460/R cells [3] = assay: MTT assay, cell growth inhibition, NCI-H460/R (MDR); assay type: cell-based, human
Protocol: as §1, §2, §3

NCI-H460 cells = assay: MTT assay, cell growth inhibition, NCI-H460; assay type: cell-based; conditions: Homo sapiens, 72 h, three independent experiments
Protocol: as §1, §3

Row | IC50 (NCI-H460/R cells [1]) [nM] | IC50 (DLD1-TxR cells; Homo sapiens, MDR cells) [nM] | IC50 (DLD1 cells) [nM] | IC50 [2] [nM] | P-gp activity / Rho 123 accumulation (P-gp) | IC50 (NCI-H460/R cells [3]; Homo sapiens, NCI-H460, 72 h, MDR cells) [nM] | IC50 (NCI-H460 cells) [nM] | Compound | Change in P-gp expression, DLD1 (P-gp expression) | Change in P-gp expression, NCI-H460 (P-gp expression) | Efficacy in MDR DLD1-TxR cells compared with sensitive DLD1 (DLD1-TxR cells) | IC50 (MRC-5 cells) [nM] | IC50 (Hsp90) [nM] | Efficacy in MDR NCI-H460/R cells compared with sensitive NCI-H460 (NCI-H460/R cells [3]; 72 h)
1 | 2270 ± 42.4 | – | – | – | – | – | – | COc1cccc2c1C(=O)c1c(O)c3c(c(O)c1C2=O)C[C@@](O)(C(=O)CO)C[C@@H]3O[C@H]1C[C@H](N)[C@H](O)[C@H](C)O1 [DOX, doxorubicin] | significantly increased P-gp expression | significantly increased P-gp expression | – | – | – | –
2 | – | 1000 ± 16 | 1900 ± 36 | ≥ 1000 | decreased | 1060 ± 12 | 1250 ± 28 | COc1cccc2c1C(=O)c1c(-c3ccncc3)noc1C2=O [Compound 13] | – | – | collateral sensitivity | 174 ± 4 | 1900 | evaded resistance mechanisms
